Measured values from patent publication US20040138203A1, “Bicyclic lactams and sulfonamides with 5-ht1a -affinity and use thereof for preventing and treating cerebral ischaemia” (priority 2000, published 2004).

Molecular target: T1, cloned human 5-HT1A receptors (Homo sapiens, UniProt P08908)
T1 construct: expressed in transfected cells; host or cells: HEK293 cells, kept under G-418 selection; membranes used
T1 sequence (P08908 1-422): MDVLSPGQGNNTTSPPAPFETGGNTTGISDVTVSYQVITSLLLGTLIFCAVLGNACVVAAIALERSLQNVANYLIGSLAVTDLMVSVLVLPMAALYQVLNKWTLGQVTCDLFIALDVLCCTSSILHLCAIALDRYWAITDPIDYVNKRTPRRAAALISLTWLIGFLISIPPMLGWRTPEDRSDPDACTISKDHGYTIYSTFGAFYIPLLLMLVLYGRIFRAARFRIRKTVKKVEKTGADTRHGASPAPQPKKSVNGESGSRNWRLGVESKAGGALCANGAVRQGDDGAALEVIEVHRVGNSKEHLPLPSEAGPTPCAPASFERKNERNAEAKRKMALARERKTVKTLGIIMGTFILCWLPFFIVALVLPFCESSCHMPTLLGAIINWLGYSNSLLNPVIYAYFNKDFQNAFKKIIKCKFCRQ
Assay: 5-HT1A binding assay using membranes from 5-HT1A receptor-expressing HEK293 cells (3H-8-OH-DPAT displacement)
Settings: 3H-8-OH-DPAT 0.15 nM, HEK293 cell membranes, 90 min at 22° C.
Procedure: The following test arrangement was used for determining the receptor binding affinity:
5-HT1A binding assay using membranes from 5-HT1A receptor-expressing HEK293 cells
Culturing 5-HT1A receptor-expressing HEK293 cells 5-HT1A-expressing HEK293 cells are cultured, at 37° C. and in a 5% CO2 atmosphere, in RPMI/Glutamax medium (RPMI 1640, 25 mM Hepes, 2 mM Glutamax, 10% FCS, 2 mM glutamine, penicillin/streptomycin (100 IU/ml each), geneticin G-418 sulfate, 400 mg/l, NaHCO3, 1.2 g/l) in culture flasks (T-175 triple flasks). After confluence has been reached, the medium is removed and the flasks are filled with 15 ml of sterile PBS (phosphate-buffered saline). The cells are detached by incubating them for 10 minutes (incubator, 37° C.) with a trypsin solution (0.05% trypsin, 0.0004% EDTA, 0.02% EGTA, 2.682 mM KCl, 1.47 mM KH2PO4, 6.46 mM NaHPO4, 136.89 mM NaCl). The detachment of the cells is promoted by knocking on the bottom of the flask. After having been transferred into 50 ml tubes (Greiner), the cells are centrifuged at 250×g at room temperature. The supernatant is discarded and the cells are resuspended in 10 ml of medium. The cells are aliquoted once again into culture flasks and cultured for a further 5 to 6 days until the membranes are prepared.
Preparing the Membranes from 5-HT1A Receptor-Expressing HEK293 Cells
The supernatants are removed from the cells and the culture flasks are filled with PBS. The cells are then incubated for 10 minutes with a trypsin solution (for composition see above). The detachment of the cells is promoted by knocking on the bottom of the flask. The cell suspension is removed and the remaining cells are likewise taken up in PBS by washing the culture flasks twice with PBS. The combined cell suspension is aliquoted into […] and centrifuged at 250×g and 4° C. for 10 minutes. The supernatants are discarded and the cells in the pellet are resuspended in PBS. 20 μl of the cell suspension are removed and the cell density is determined. The cells are centrifuged once again at 250×g (4° C.) for 10 minutes, after which the supernatant is discarded and the cells in the pellet are homogenized in 50 mM tris-HCl, pH 7.4 (1 ml/10^8 cells) using an Ultra-Turrax (30 sec).
The homogenate is aliquoted into cryotubes (1 ml/cryotube) and stored in liquid nitrogen until used in the binding assay.
The frozen membranes are thawed at 37° C., after which they are centrifuged at 48000*g (20 minutes) and then resuspended in binding buffer (50 mM Tris-HCl, pH 7.4, 5 mM CaCl2). An incubation assay mixture contains membrane material from […], 0.15 pmol (=0.15 nM) of 3H-8-OH-DPAT, and the substances to be tested, in a total of 1 ml of binding buffer. Nonspecific binding is determined in the presence of 10^−5 M 5-carboxamidotryptamine. Following a 90-minute incubation at 22° C., bound and free ligand are separated from each other by filtering through […] and subsequently washing with from 5 to 9 ml of ice-cold binding buffer. Before use, the GF/B filters are treated for at least 2 hours with 0.3% polyethylenimine. Following filtration, from 3 to 4 ml of Packard Ultima Gold XR are added to the filters and the radioactivity is determined by liquid scintillation counting in a Packard Tricarb.
Evaluating the Data from the 5-HT1A Binding Assay
The displacement curves are analyzed by nonlinear regression using a modified version of the “Ligand” program of Munson & Rodbard (Anal. Biochem., 107, 220 (1980)). The value of the theoretical nonspecific binding is assessed to be the theoretical binding of radioligand at infinitely high ligand concentration. In this connection, the measured values for the nonspecific binding are treated as data points of the displacement curve which correspond to experimental points at an infinitely high ligand concentration. […]

Structure (SMILES)	Ki
O=S1(=O)c2ccccc2CN1CCN1CCN(c2cccc3ccccc23)CC1 [Example 8, 2-[2-(4-(1-Naphthyl)-1-piperazinyl)ethyl]-2,3-dihydro-1,2-benzisothiazole 1,1-dioxide]	0.1 nM
O=C1CCc2ccccc2N1CCN1CCN(c2nccc3ccccc23)CC1 [Example 6, 1-[2-(4-(1-Isoquinolinyl)-1-piperazinyl)-ethyl]-3,4-dihydro-2(1H)-quinolinone]	4.1 nM
O=C1c2ccccc2CCN1CCN1CCN(c2nccc3ccccc23)CC1 [Example 1, 2-[2-(4-(1-Isoquinolinyl)-1-piperazinyl)ethyl]-3,4-dihydro-1(2H)-isoquinolinone]	0.6 nM
O=C1Cc2ccccc2N1CCN1CCN(c2cccc(C(F)(F)F)c2)CC1 [Example 5, 1-[2-(4-(3-Trifluoromethylphenyl)-1-piperazinyl)ethyl]-1,3-dihydro-2H-indol-2-one]	2.9 nM
Cc1cccc(N2CCN(CCN3Cc4ccccc4C3=O)CC2)n1 [Example 4, 2-[2-(4-(6-Methyl-2-pyridinyl)-1-piperazinyl)-ethyl]-1-isoindolinone]	2.6 nM
O=S1(=O)c2ccccc2CN1CCN1CCN(c2nccc3ccccc23)CC1 [Example 3, 2-[2-(4-(1-Isoquinolinyl)-1-piperazinyl)-ethyl]-2,3-dihydro-1,2-benzisothiazole 1,1-dioxide]	1.6 nM
Cc1cccc(N2CCN(CCN3Cc4ccccc4S3(=O)=O)CC2)n1 [Example 10, 2-[2-(4-(6-Methyl-2-pyridinyl)-1-piperazinyl)ethyl]-2,3-dihydro-1,2-benzisothiazole 1,1-dioxide]	0.5 nM
O=S1(=O)c2ccccc2CN1CCN1CCN(c2cccc(C(F)(F)F)c2)CC1 [Example 13, 2-[2-(4-(3-Trifluoromethylphenyl)-1-piperazinyl)ethyl]-2,3-dihydro-1,2-benzisothiazole 1,1-dioxide]	1 nM
O=C1c2ccccc2CN1CCN1CCN(c2nccc3ccccc23)CC1 [Example 22, 2-[2-(4-(1-Isoquinolinyl)-1-piperazinyl)ethyl]-1-isoindolinone]	5.4 nM
O=c1c2ccccc2ccn1CCN1CCN(c2nccc3ccccc23)CC1 [Example 2, 2-[2-(4-(1-Isoquinolinyl)-1-piperazinyl)-ethyl]-1(2H)-isoquinolinone]	0.6 nM
O=C1Cc2ccccc2N1CCN1CCN(c2nccc3ccccc23)CC1 [Example 19, 1-[2-(4-(1-Isoquinolinyl)-1-piperazinyl)ethyl]-1,3-dihydro-2H-indol-2-one]	0.7 nM
O=c1ccc2ccccc2n1CCN1CCN(c2nccc3ccccc23)CC1 [Example 7, 1-[2-(4-(1-Isoquinolinyl)-1-piperazinyl)-ethyl]-2(1H)-quinolinone]	2.4 nM
